Laboratory results from ChEMBL document CHEMBL1140362, “Novel iron-specific fluorescent probes” (Bioorg Med Chem Lett, 2005).
Values joined by “and” are separate entries in the source; they are usually repeats but may differ in a detail not shown here. Equal values may be shown once.

Columns and labels:
Homo sapiens = organism: Homo sapiens; test: The fluorescent suspension followed by time was estimated in the presence of Diehtylenetriamine-penta acetic acid; type: functional
[1] = Permeability parameter across human erythrocyte ghost membrane was determined by using fluorescence intensity of 10 uM in presence of Diethylenetriamine-penta acetic acid (DTPA); type: ADME; settings: erythrocytes
[2] = Permeability parameter across human erythrocyte ghost membrane was determined by using fluorescence intensity of 10 uM in absence of Diethylenetriamine-penta acetic acid (DTPA); type: ADME; settings: erythrocytes
[3] = The fluorescent suspension followed by time was estimated in the absence of Diehtylenetriamine-penta acetic acid; type: functional

Row | SMILES | TIME (Homo sapiens) [h] | Fluorescence [1] [a.u] | Fluorescence [2] | TIME [3]
1 | Cc1cc2[nH]c(=O)c3cc(=O)c(O)cn3c2cc1C | 0.00667 | 252 | – | –
2 | O=C1NCCn2cc(O)c(=O)cc21 | 0.0353 | 117 | 127 a.u and 65 a.u | 0.03 h and 0.0786 h
